Test results published in paper PMC10610885, “Discovery of an Insect Neuroactive Helix Ring Peptide from Ant Venom” (Toxins, 2023).
Where two headings read alike, the source gives them in different places.

What was measured:
[1] = test system: Sitophilus oryzae; test: Weevil toxicity test by ingestion; assay type: in vivo; settings: S. oryzae, 800 μg/g of feed, two weeks
Method: S. oryzae toxicity tests were performed with the WAA42 strain as described previously. Briefly, the insects used for the bioassays were adults 2 to 3 weeks of age collected in one week experimental cohorts and placed in batches of 30 individuals on feed pellets containing the synthetic U11 tested in a whole grain-based diet. The tested concentration of the U11 was 800 μg/g of the feed. Bioactivity was assessed by daily insect survival during the first two weeks of contact with the test diet (27.5 °C, 70% room humidity) and by standard survival analysis.

[2] = test system: S2 cells; test: Membrane potential recorded by DiBAC4(3); assay type: cell-based, Drosophila; settings: 10 µM, KCl 50 mM
Method: (§1) The embryonic S2 Drosophila cell line (Thermofisher, Waltham, MA, USA) was maintained in Schneider’s insect medium (Sigma-Aldrich, Saint Louis, MO, USA) complemented with 10% heat-inactivated fetal bovine serum (FBS) (Sigma-Aldrich) and 1% Penicillin/Streptomycin (Sigma-Aldrich) at 25 °C without CO2 on TC-treated support (Corning®, Glendale, AZ, USA). The FBS was heat inactivated at 60 °C for 45 min. The cells were passaged every two days at about 90% confluence.
Variations of membrane potential were assessed using the fluorescent dye bis-(1,3-dibutybarbituric acid) (DiBAC4(3)) (Thermofisher) using a IX73 fluorescence microscope (Olympus, Japan). Then, 6 × 10^5 S2 cells were plated on 0.01% Poly-L-Lysine (Sigma-Aldrich) coated glass-bottom Petri dishes and allowed to adhere for 24 h before experiments. […] Baseline was recorded for 1 min before addition of KCl (50 Mm final) to achieve membrane depolarization. The results are presented as transformed data to obtain the relative fluorescence to the time of addition of the stimulus, according to the equation: Fx = Ft/F0, where Ft represents the fluorescent value at a specific time point and F0 represents the mean basal fluorescent value. To compare the different conditions, areas under the curve (AUC) after KCl addition were calculated (between 60 and 300 s).

[3] = test system: blowfly Lucilia caesar; test: Blowfly paralytic assay, intrathoracic injection; assay type: in vivo; settings: L. caesar; for PD50 [1 h]: 1 h post injection, mean ± SEM, n = 3, ten flies per dose
Method: (§2) In this study, we screened the neurotoxic activity of U11 when injected into a panel of beneficial and pest insects such as honeybees, blowflies, and aphids. Blowfly is a dipteran model commonly used to evaluate the insecticidal potency of venom peptides. Blowfly maggots (Lucilia caesar) were bought from a fisheries shop (Euroloisir81, Lescure-d’Albigeois, France) and were kept at 25 °C until hatching. Flies 1–4 days post hatching were used for the injection assays. Honeybee (Apis mellifera) is a model of choice to assess the impact of a toxin against beneficial insects such as pollinators. The honeybee colonies used in this study belong to the Buckfast breed and were maintained at the University Champollion campus in Albi. Adult foraging honeybees were individually isolated in plastic vials and immediately injected. Assays on blowflies and honeybees were conducted by lateral intrathoracic injection of peptides dissolved in ultra-pure water at several concentrations (from 0.005 to 0.52 mM for L. caesar and from 0.002 to 1 mM for A. mellifera) by using a 1.0 mL Hamilton Syringe (1000 Series Gastight, Hamilton Company, Reno, NV, USA) with a fixed 25 gauge needle attached to an Arnold hand microapplicator (Burkard Manufacturing Co., Ltd., Rickmansworth, UK). Each fly/bee received 1 µL of peptide solution and was individually housed in a 2 mL tube with 3 µL of 5% glucose solution. Paralytic activity was monitored at 1 h and 24 h after injection while lethality was monitored only at 24 h. […] Ten flies/honeybees were used for each toxicity experiment and for the appropriate control (ultrapure water solution), and the experiment was repeated three times for each dose. Dose–response data were analyzed as detailed by Touchard et al.. The pea aphids A. pisum used in this study were obtained from a long-established parthenogenetic clone (LL01). Aphids were kept on young broad bean plants (Vicia faba, L. cv. Aquadulce) at 21 °C with a photoperiod of 16 h light 8 h dark, allowing us to maintain them as strictly parthenogenetic matrilines. To produce synchronized apterous nymphs, winged adults were allowed to reproduce on seedlings for 24 h. The resulting synchronized nymphs were reared for 9 days on plants before the beginning of the experiments (peptide injection or feeding). For the injection experiment, we used four groups of synchronized A9 aphids (30 per group): (i) non-injected aphids, (ii) aphids injected with sterilized ultra-pure water (injection control), (iii) aphids injected with PA1b inactivated peptide (non-toxic peptide injection control), and (iv) aphids injected with the U11 peptide. […] Aphids were monitored daily for 7 days after injection and their survival and behavior regularly checked, following the protocol developed by Ribeiro Lopes et al.. […]

[4] = test system: D. melanogaster; test: Ingestion assay on Drosophila; assay type: in vivo; settings: fed at high doses in 50% sucrose (Figure S2)
Method: (§3) We used the same protocol used in Guo et al. for the ingestion assays with flies (L. caesar and D. melanogaster). Briefly, flies were placed in 2 mL microcentrifuge tubes right after hatching and were individually fed with 3 µL of 50% w/v sucrose solution (negative control) or sucrose solution containing the toxin. They were then kept at 25 °C. Mortality was recorded at 1, 2, 4, 24, 48, and 72 h after exposure to the tested compound. The surviving flies received 3 µL of 50% w/v sucrose solution without peptide each day until the end of the experiment. For each test, ten flies were used per treatment and each of them was replicated three times.

[5] = test system: S2 cells; test: Intracellular Ca2+ mobilization, Fluo-4/AM probe; assay type: cell-based, Drosophila; settings: 10 µM, 1 h preincubation, thapsigargin 2 µM then CaCl2 1.8 mM
Method: as §1
The [Ca^2+]i mobilization was measured with the Fluo-4/AM probe using the imaging reader Cytation 1 (BioTek, Agilent). Then, 6 × 10^5 S2 cells/mL were plated on glass-bottom Petri dishes and allowed to adhere for 24 h before experiments. Cells are incubated with 2 µM of Fluo-4/AM in cell culture medium with 2.5 mM probenecid for 1 h at 25 °C with 10 µM of U11 peptide. Then, cells were rinsed twice in Ca^2+-free buffer containing (in mM) 120 NaCl, 5 KCl, 4 MgCl2, 32.2 Sucrose, 10 HEPES, 0.1 EGTA, 2.5 probenecide (pH 7.2), incubated in Ca^2+-free buffer, and processed for measurement of cytoplasmic Ca^2+ concentration. […] Cell fluorescence was analyzed with CALIMA [59] […] Changes in the Ca^2+ cytosolic concentration were calculated from changes of fluorescence relative to time 0 (F = Ft/Ft0 (fluorescence at time = t/time = 0)).

[6] = test system: aphids (Acyrthosiphon pisum); test: Aphid intra-abdominal injection assay; assay type: in vivo; settings: A. pisum
Method: as §2, with “(LL01).” for “(LL01). Aphids were kept on young broad bean plants (Vicia faba, L. cv. Aquadulce) at 21 °C with a photoperiod of 16 h light 8 h dark, allowing us to maintain them as strictly parthenogenetic matrilines. To produce synchronized apterous nymphs, winged adults were allowed to reproduce on seedlings for 24 h. The resulting synchronized nymphs were reared for 9 days on plants before the beginning of the experiments (peptide injection or feeding). For the injection experiment, we used four groups of synchronized A9 aphids (30 per group): (i) non-injected aphids, (ii) aphids injected with sterilized ultra-pure water (injection control), (iii) aphids injected with PA1b inactivated peptide (non-toxic peptide injection control), and (iv) aphids injected with the U11 peptide.”

[7] = test system: L. caesar; test: Ingestion assay on blowflies; assay type: in vivo, Lucilia caesar
Method: as §3

[8] = test system: S2 Drosophila embryonic cell line; test: LDH cytotoxicity assay; assay type: cell-based; settings: S2 cells, 5 and 50 µM, 1 h and 24 h of incubation
Method: as §1
(§4) The CCK-8 (BosterBio, Pleasanton, CA, USA) and LDH (Dojindo, Rockville, MD, USA) assay kits were used to assess the cellular viability and mortality, with densities of 2 × 10^5 cells/mL and 6 × 10^5 cells/mL, respectively. Briefly, 100 µL of S2 cells at the appropriate densities were seeded in 96-well TC-treated plates and incubated for 24 h at 25 °C. […] Lysis Buffer, Triton 0.1%, and culture medium were used for controls. Viability and mortality cell assays were realized separately and in triplicates according to manufacturer’s instructions. The absorbances were measured using a BioTek Cytation 1 microplate reader (Agilent, Santa Clara, CA, USA) (i.e., 450 nm and 490 nm for CCK-8 and LDH assays, respectively). The percentages of living or dead cells were then calculated according to manufacturer’s recommendations.

[9] = test system: honeybees (Apis mellifera); test: Honeybee paralytic assay, intrathoracic injection; assay type: in vivo; settings: A. mellifera, n = 3
Method: In this study, we screened the neurotoxic activity of U11 when injected into a panel of beneficial and pest insects such as honeybees, blowflies, and aphids. Blowfly is a dipteran model commonly used to evaluate the insecticidal potency of venom peptides. Blowfly maggots (Lucilia caesar) were bought from a fisheries shop (Euroloisir81, Lescure-d’Albigeois, France) and were kept at 25 °C until hatching. Flies 1–4 days post hatching were used for the injection assays. Honeybee (Apis mellifera) is a model of choice to assess the impact of a toxin against beneficial insects such as pollinators. The honeybee colonies used in this study belong to the Buckfast breed and were maintained at the University Champollion campus in Albi. Adult foraging honeybees were individually isolated in plastic vials and immediately injected. […] Paralytic activity was monitored at 1 h and 24 h after injection while lethality was monitored only at 24 h. […] Dose–response data were analyzed as detailed by Touchard et al.. […] Aphids were monitored daily for 7 days after injection and their survival and behavior regularly checked, following the protocol developed by Ribeiro Lopes et al.. […]

[10] = test system: S2 Drosophila embryonic cell line; test: CCK-8 cytotoxicity assay; assay type: cell-based
Method: as §1, §4

[11] = test system: A. pisum; test: Feeding experiment on aphids; assay type: in vivo, Acyrthosiphon pisum; settings: artificial diet with 500 μg/mL and 1 mg/mL, seven days
Method: For the feeding experiments on aphids, one-day-old aphids (corresponding to the first-instar nymphs N1) were placed for seven days in feeding chambers on 48 μL of a nutritive artificial diet specifically developed for A. pisum feeding, and development was completed with or without the peptide U11. The diets were changed after three days to avoid contamination. Ten N1 were deposited in the feeding chamber and three replicates were performed for each bioassay. Aphids’ mortality was assessed every day and compared between the different diets using a GLM linear regression model after observation of the residuals with a significance level of 5% on the R Studio software. Survival of aphids on two diets, completed, respectively, with U11 at 500 μg/mL and 1 mg/mL, was followed during seven days.

[12] = test system: A. mellifera; test: Ingestion assay on honeybees; assay type: in vivo, Apis mellifera; settings: force fed 5 µL sucrose solution with 8 mg/mL (110 nmol/g bee)
Method: The ingestion assays on honeybees were conducted by placing bees in 850 mL plastic storage boxes with 2 mL microcentrifuge tubes filled with 50% w/v sucrose solution and previously drilled for bee access. The boxes were kept at 25 °C in the dark and the bees were allowed to feed ad libitum on the sucrose solution. For each test, ten bees were used per treatment, and each of them was replicated three times. Lethality was recorded at 1, 2, 4, 24, and 48 h after exposure to U11 peptide.
For oral toxicity assays, insects were starved for 2 h prior testing. Bees were individually force fed with 5 µL of 50% w/v sucrose solution (negative control), or sucrose solution containing the toxin (8 mg/mL–110 nmol/g bee).

[13] = cited from earlier work
Method: Table 2 Neuroactivity of ant venom peptides on blowfly species (Lucilia spp.) ranked by PD50 values 1 h post injection. | column: Cytotoxicity

[14] = test system: blowfly Lucilia caesar; settings: L. caesar, 1 h post injection; cited from earlier work
Method: Table 2 Neuroactivity of ant venom peptides on blowfly species (Lucilia spp.) ranked by PD50 values 1 h post injection. | column: PD50 [1 h] *

For U11-MYRTX-Tb1a, the toxicity by ingestion [1] was “unaffected”, the “depolarization-induced increase in fluorescence intensity, less than in the control condition” value ([2]; 30 min, DiBAC4(3), NMDG buffer) was 33% and the “AUC of relative fluorescence after KCl application” value ([2]; 60-300 s, mean ± SEM of n = 220 cells (n = 3), control 464 ± 35) was 312 ± 23. For the same substance, the “paralysis of flies 1 h after injection (screen)” value ([3]; intrathoracic injection of one high dose per peptide (Table 1: U8 54, U10 28, U11 27, U13 45 nmol. g^−1), 1 h, ten flies per replicate, three replicates) was “paralysis of all flies”, the “PD50 [1 h]” value ([3]; intrathoracic injection) was 1.78 ± 0.12 nmol/g and the “PD50 [1 h]” value ([3]; intrathoracic injection, listed as U11-Tb1a) was 1.8 ± 0.1 nmol/g. The “PD50 24 h post injection” value ([3]; intrathoracic injection, 24 h post injection, n = 3) was 2.67 ± 0.13 nmol/g, the toxicity by ingestion [4] was “active by ingestion” and the “calcium mobilization (Tg response and calcium influx)” value [5] was “No effect”. The “effect on aphid fitness” value ([6]; injection 3.4 nmol. g^−1, monitored over 7 days (Figure S1)) was “weak effect”, the “aphids affected 24 h post injection” value ([6]; intra-abdominal injection, 3.4 nmol. g^−1 (46 nL of 0.25 mM), 24 h) was 6.6% and the “paralytic effect on aphids by injection” value ([6]; intra-abdominal injection, 3.4 nmol. g^−1, 24 h) was “weak paralytic effect”. The toxicity by ingestion ([7]; fed at high doses in 50% sucrose (Figure S2)) was “active by ingestion”, the “blowflies affected 24 h post ingestion” value ([7]; ingestion, 8 mg/mL (350 nmol. g^−1), 24 h) was 60% and the “cytotoxicity, LDH assay” value [8] was “not cytotoxic”. The “PD50 1 h post injection” value ([9]; 1 h post injection) was 1.36 ± 0.08 nmol/g, the “PD50 24 h post injection” value ([9]; 24 h post injection) was 1.11 ± 0.09 nmol/g and the “cytotoxicity, CCK-8 assay” value ([10]; S2 cells, 5 and 50 µM, 1 h and 24 h of incubation) was “not cytotoxic”. The Cytotoxicity ([10]; Table 2, this study: CCK-8 and LDH assays on S2 cells) was “No”, the toxicity by ingestion [11] was “unaffected” and the toxicity by ingestion [12] was “unaffected”.
For bicarinalin [M-Tb1a], the Cytotoxicity [13] is given as “Yes” and the “PD50 [1 h]” value [14] is given as 12.0 ± 1.0 nmol/g.
